Experimental data: patent US9428549B2, “Derivatives of N-urea substituted amino acids as formyl peptide receptor modulators” (Allergan, Inc., priority 2013, dated 2016)
Several values for one entry are separate records, joined by “and”; a condition that tells them apart may be missing. Equal entries are not always repeated.

Target: T1, FPR2 (Homo sapiens, UniProt P25090)
T1 construct: expressed in transfected cells
T1 sequence (P25090 1-351): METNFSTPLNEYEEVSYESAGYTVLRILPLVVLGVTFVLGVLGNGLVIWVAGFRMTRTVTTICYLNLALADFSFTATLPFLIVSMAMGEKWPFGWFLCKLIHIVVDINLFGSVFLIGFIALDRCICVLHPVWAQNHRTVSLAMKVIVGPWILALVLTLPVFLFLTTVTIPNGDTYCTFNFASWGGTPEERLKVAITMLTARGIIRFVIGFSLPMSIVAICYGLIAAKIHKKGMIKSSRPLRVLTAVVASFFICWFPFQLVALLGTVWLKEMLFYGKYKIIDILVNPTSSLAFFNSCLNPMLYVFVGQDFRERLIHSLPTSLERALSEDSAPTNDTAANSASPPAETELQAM
Assay: Compound-induced calcium activity on FLIPR Tetra in CHO-Gα16 cells stably expressing FPRL1
Assay type: cell-based
Details: for FPR2 Ga16-CHO (Rel. eff.): relative efficacy; for EC50: tested 0.61 to 10,000 nM, read-out: FPR2 Ga16-CHO EC50
Description: CHO-Gα16 cells stably expressing FPRL1 were cultured in (F12, 10% FBS, 1% PSA, 400 μg/ml geneticin and 50 μg/ml hygromycin) and HEK-Gqi5 cells stable expressing FPR1 were cultured in (DMEM high glucose, 10% FBS, 1% PSA, 400 μg/ml geneticin and 50 μg/ml hygromycin). In general, the day before the experiment, 18,000 cells/well were plated in a 384-well clear bottom poly-d-lysine coated plate. The following day the screening compound-induced calcium activity was assayed on the FLIPR^Tetra. The drug plates were prepared in 384-well microplates using the EP3 and the MultiPROBE robotic liquid handling systems. Compounds were tested at concentrations ranging from 0.61 to 10,000 nM. Results are expressed as EC50 (nM) and efficacy values.

Row | Compound | FPR2 Ga16-CHO (Rel. eff.) | EC50 | FPR2 Ga16-CHO (Rel. eff.) (listed as {Ethyl[(2S)-4-Methyl-2-({[4-(trifluoromethyl)phenyl]carbamoyl}amino)pentanoyl]am) | FPR2 Ga16-CHO (Rel. eff.) (listed as {Ethyl[(2S)-4-methyl-2-({[4-(trifluoromethyl)phenyl]carbamoyl}amino)pentanoyl]am)
1 | CC(C)C[C@H](NC(=O)Nc1ccc(Br)cc1)C(=O)N(C)CC(=O)OC(C)(C)C [Compound 1, tert-Butyl{[(2S)-2-{[(4-Bromophenyl)carbamoyl]amino}-4-methylpentanoyl](methyl)amino}acetate] | (0.85) | 11.8 nM | – | –
2 | CC(C)C[C@H](NC(=O)Nc1ccc(C(F)(F)F)cc1)C(=O)N(C)CC(=O)OC(C)(C)C [Compound 2, tert-Butyl {Methyl[(2S)-4-methyl-2-({[4-(trifluoromethyl)phenyl]carbamoyl}amino)pentanoyl]amino}acetate] | (1.02) | 995 nM | – | –
3 | CCN(CC(=O)O)C(=O)[C@H](CC(C)C)NC(=O)Nc1ccc(C(F)(F)F)cc1 [Compound 15, {Ethyl[(2S)-4-Methyl-2-({[4-(trifluoromethyl)phenyl]carbamoyl}amino)pentanoyl]amino}acetic acid] | – | 0.32 nM and 1.85 nM | (0.85) | (1.02)
4 | CC(C)C[C@H](NC(=O)Nc1ccc(C(F)(F)F)cc1)C(=O)N(C)CC(=O)O [Compound 9, {Methyl[(2S)-4-Methyl-2-({[4-(trifluoromethyl)phenyl]carbamoyl}amino)pentanoyl]amino}acetic acid] | (1.02) | 0.41 nM | – | –
5 | CC(C)C[C@H](NC(=O)Nc1ccc(Br)cc1)C(=O)N(C)CC(=O)O [Compound 8, {[(2S)-2-{[(4-bromophenyl)carbamoyl]amino}-4-methylpentanoyl](methyl)amino}acetic acid] | (1.00) | < 1 nM | – | –
6 | CCN(CC(=O)O)C(=O)[C@H](CC(C)C)NC(=O)Nc1ccc(Br)cc1 [Compound 14, {[(2S)-2-{[(4-Bromophenyl)carbamoyl]amino}-4-methylpentanoyl](ethyl)amino}acetic acid] | (0.99) | 0.13 nM | – | –
7 | CC(C)C[C@H](NC(=O)Nc1ccc(Br)cc1)C(=O)N(CC(=O)O)C(C)C [Compound 10, {[(2S)-2-{[(4-Bromophenyl)carbamoyl]amino}-4-methylpentanoyl](propan-2-yl)amino}acetic acid] | (0.97) | 0.24 nM | – | –
8 | CCCN(CC(=O)OC(C)(C)C)C(=O)[C@H](CC(C)C)NC(=O)Nc1ccc(Br)cc1 [Compound 4, tert-Butyl {[(2S)-2-{[(4-Bromophenyl)carbamoyl]amino}-4-methylpentanoyl](propyl)amino}acetate] | (1.04) | 0.29 nM | – | –
9 | CC(C)C[C@H](NC(=O)Nc1ccc(C(F)(F)F)cc1)C(=O)N(CC(=O)O)C(C)C [Compound 11, {[(2S)-4-Methyl-2-({[4-(trifluoromethyl)phenyl]carbamoyl}amino)pentanoyl](propan-2-yl)amino}acetic acid] | (0.75) | 1730 nM | – | –
10 | CCCN(CC(=O)OC(C)(C)C)C(=O)[C@H](CC(C)C)NC(=O)Nc1ccc(C(F)(F)F)cc1 [Compound 5, tert-Butyl {[(2S)-4-Methyl-2-({[4-(trifluoromethyl)phenyl]carbamoyl}amino)pentanoyl](propyl)amino}acetate] | (0.95) | 434 nM | – | –
11 | CC(C)C[C@H](NC(=O)Nc1ccc(Br)cc1)C(=O)N(CC(=O)OC(C)(C)C)C(C)C [Compound 3, tert-Butyl {[(2S)-2-{[(4-Bromophenyl)carbamoyl]amino}-4-methylpentanoyl](propan-2-yl)amino}acetate] | (1.06) | 163 nM | – | –
12 | CCN(CC(=O)OC(C)(C)C)C(=O)[C@H](CC(C)C)NC(=O)Nc1ccc(C(F)(F)F)cc1 [Compound 7, tert-Butyl {Ethyl[(2S)-4-methyl-2-({[4-(trifluoromethyl)phenyl]carbamoyl}amino)pentanoyl]amino}acetate] | (0.91) | 17 nM | – | –
13 | CCN(CC(=O)OC(C)(C)C)C(=O)[C@H](CC(C)C)NC(=O)Nc1ccc(Br)cc1 [Compound 6, tert-Butyl {[(2S)-2-{[(4-bromophenyl)carbamoyl]amino}-4-methylpentanoyl](ethyl)amino}acetate] | (0.50) | 1970 nM | – | –
14 | CCCN(CC(=O)O)C(=O)[C@H](CC(C)C)NC(=O)Nc1ccc(C(F)(F)F)cc1 [Compound 13, {[(2S)-4-Methyl-2-({[4-(trifluoromethyl)phenyl]carbamoyl}amino)pentanoyl](propyl)amino}acetic acid] | (1.04) | < 1 nM | – | –
